Data reported in patent US9056111B1, “Selective efflux inhibitors and related pharmaceutical compositions and methods of treatment” (STC.UNM, priority 2011, dated 2015).
Values after ≈ are worked out from the molar mass of the structure shown. Values joined by “and” are separate entries in the source; they are usually repeats but may differ in a detail not shown here. Equal values may be shown once.

What was measured:
[1] = system: Ig-MXP3 cells; test: Direct cytotoxicity (Toxic Dose 50) without chemotherapeutic; type: cell-based; settings: Ig-MXP3 cells, inhibitor without chemotherapeutic
[2] = system: Jurkat-DNR cells; test: as above; settings: Jurkat-DNR cells, inhibitor without chemotherapeutic
Summary of the method: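 Jurkat-DNR cells grown in media alone with compound over a 3-order-of-magnitude range for 3 and 7 days, keeping at least 1×10^5 cells/mL. Viability by trypan blue exclusion counted under light microscopy; TD50 derived from cell death.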

[3] = molecular target: ABCB1 (Homo sapiens, UniProt P08183); test: JC-1 efflux inhibition dose response, flow cytometry, Jurkat-DNR cells
Summary of the method: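 Jurkat-DNR cells pre-stained with 1 μM JC-1 were incubated with compound (final 50 μM to 69 nM, […]) at 1×10^6 cells/mL, rotated 30 min at 25° C. Retained JC-1 read by flow cytometry (488 nm excitation, 530/40 nm emission). Curves fitted to a four-parameter logistic.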

[4] = Aqueous solubility in PBS; type: physicochemical; settings: phosphate buffered saline (PBS), aqueous buffer; PBS pH 7.4, room temperature (23° C.)
Description: PBS by definition is 137 mMNaCl, 2.7 mMKCl, 10 mM sodium phosphate dibasic, 2 mM potassium phosphate monobasic and a pH of 7.4.

[5] = Aqueous stability in PBS at room temperature; type: physicochemical
Description: Aqueous stability was measured at room temperature (23° C.) in PBS (no antioxidants or other protectants and DMSO concentration below 0.1%). The stability of SID 88095709, determined as the percent of compound remaining after 48 hours, was 10%.^64Stability data are depicted as a graph showing the loss of compound with time over a 48 hour period with a minimum of 6 time points and provide the percent remaining compound at end of the 48 hours (FIG. 3, closed circles).
The stability data under these conditions overlain in the FIG. 3 and is also depicted as a graph showing the loss of compound with time over a 48 hour period with a minimum of 6 time points and provide the percent remaining compound at end of the 48 hours (FIG. 3, closed triangles). The addition of acetonitrile appears to have solubilized the compound and provided a more accurate reading of the stability, which is now 100% remaining after 48 hours.

Chain of ABCB1 (P08183 whole entry): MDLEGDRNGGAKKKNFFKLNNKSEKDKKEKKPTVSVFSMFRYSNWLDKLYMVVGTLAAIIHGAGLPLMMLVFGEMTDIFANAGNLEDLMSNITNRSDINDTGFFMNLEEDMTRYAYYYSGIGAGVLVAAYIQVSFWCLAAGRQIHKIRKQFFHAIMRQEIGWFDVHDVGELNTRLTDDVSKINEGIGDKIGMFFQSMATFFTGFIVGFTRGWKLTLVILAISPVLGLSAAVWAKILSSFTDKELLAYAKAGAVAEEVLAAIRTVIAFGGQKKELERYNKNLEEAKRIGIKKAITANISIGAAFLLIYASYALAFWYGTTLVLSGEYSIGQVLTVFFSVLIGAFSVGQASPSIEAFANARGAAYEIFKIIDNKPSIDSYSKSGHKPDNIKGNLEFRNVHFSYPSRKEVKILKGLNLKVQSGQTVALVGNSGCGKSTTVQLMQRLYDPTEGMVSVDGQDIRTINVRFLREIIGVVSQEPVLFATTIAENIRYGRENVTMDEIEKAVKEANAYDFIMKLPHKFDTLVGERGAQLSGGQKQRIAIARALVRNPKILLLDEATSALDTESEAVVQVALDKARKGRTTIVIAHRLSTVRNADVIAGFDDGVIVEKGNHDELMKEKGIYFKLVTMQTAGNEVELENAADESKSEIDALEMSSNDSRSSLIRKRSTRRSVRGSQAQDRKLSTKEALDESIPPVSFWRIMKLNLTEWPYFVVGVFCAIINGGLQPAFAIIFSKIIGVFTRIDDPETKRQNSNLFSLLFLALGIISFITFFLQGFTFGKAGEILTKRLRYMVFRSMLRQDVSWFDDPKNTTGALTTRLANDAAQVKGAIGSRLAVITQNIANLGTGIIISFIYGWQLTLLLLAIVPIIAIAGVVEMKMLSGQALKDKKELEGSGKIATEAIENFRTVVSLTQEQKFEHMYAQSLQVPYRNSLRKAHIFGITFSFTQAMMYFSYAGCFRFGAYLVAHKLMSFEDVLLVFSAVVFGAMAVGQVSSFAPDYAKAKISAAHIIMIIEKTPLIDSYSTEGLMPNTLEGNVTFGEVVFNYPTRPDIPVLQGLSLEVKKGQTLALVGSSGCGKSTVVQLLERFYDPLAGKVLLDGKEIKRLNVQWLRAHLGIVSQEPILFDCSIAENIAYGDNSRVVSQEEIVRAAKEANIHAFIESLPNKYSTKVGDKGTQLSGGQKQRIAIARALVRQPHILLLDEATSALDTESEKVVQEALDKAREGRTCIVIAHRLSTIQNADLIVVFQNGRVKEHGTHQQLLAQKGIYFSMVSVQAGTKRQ

## O=C(c1ccoc1)N1CCN(c2cc(-c3ccco3)nc3cc(-c4ccccc4)nn23)CC1 [Compound 1, (4-(5-(furan-2-yl)-2-phenylpyrazolo[1,5-a]pyrimidin-7-yl)piperazin-1-yl)(furan-3-yl)methanone]
[1]
  TD50 ABCG2: 18.30 µM
[1]; listed as SID 88095709
  TD50 ABCG2: 18.3 µM
[2]
  TD50 ABCB1: 5.52 µM
[2]; listed as SID 88095709
  TD50 ABCB1: 5.5 µM
[3]
  EC50: 4.65 µM
[3]; IC50 ABCB1 (efflux inhibition of JC-1 substrate), Jurkat-DNR cells over-expressing ABCB1, averages of two to four replicates
  IC50: 4.7 µM and 4.65 µM
[4]
  solubility: 0.51 µg/mL (≈ 1.16 µM)
[5]; PBS alone, 23° C., DMSO below 0.1%
  Aqueous stability, percent of compound remaining after 48 hours: 10%
[5]; PBS with acetonitrile (50% v/v final)
  Aqueous stability, percent remaining after 48 hours: 100%
